Results reported in publication PMC3723855, “R31C GNRH1 Mutation and Congenital Hypogonadotropic Hypogonadism” (PLoS ONE, 2013).
“Also recorded” adds a separate entry of the source. Like-named read-outs stand apart in the source and are kept apart here. Each block holds one compound with its values, some of them ahead of it.

Key:
GnRH-R = test: Binding after pre-incubation and washout (covalent binding test), transfected COS-7 cells; parameters: species or system human; conditions: for covalent binding to receptor / subsequent binding of radiolabeled GnRH analog after pre-incubation and washing: WT GnRH 10^−8 M or R31C GnRH 10^−5 M, 2 h, 4°C, washed, 1 h, two experiments in triplicate
Method: Figure 2 Binding of WT and R31C GnRH to the GnRH receptor (GnRH-R). […] Data are the means of two experiments performed in triplicate.
We hypothesized that the cysteine in position 8 of the R31C GnRH might form disulfide bridges with cysteine residues in the receptor that are not in disulfide bridges. There are three such cysteines: cysteine 218, cysteine 279 and cysteine 317. In order to examine this possibility the effects of R31C GnRH pre-incubation on subsequent binding of a radio-labelled GnRH analog was examined. […] After treatment, the cells were extensively washed to remove all non-covalently bound peptide.

human GnRH receptor = test: SRE-coupled luciferase assay in HEK293T cells co-transfected with human GnRH receptor; type: cell-based; conditions: for EC50: human GnRH receptor
Method: Figure 3 SRE-coupled luciferase assay. (A) HEK293T cells were exposed to graded concentrations of wild type (WT) GnRH, R31C and equimolar concentrations of WT + R31C during five hours. Luciferase activity arbitrary units by luminometry (a.u.) have been shown as ratio on beta-galactosidase activity by optical density used as transfection efficiency internal control. This experience was conducted eight times. (B) Representation of individual values of EC-50 (calculated with Arcsin “P” root transformation) from n = 8 dose-response experiments.
luc2P/SRE/Hygro plasmid (Promega, Madison, WI) was used to test luciferase production in response to MAP kinase activation as a reporter gene system. HEK293T cells (1.2×10^4 cells/well) were seeded 72 h before testing in high-glucose Dulbecco's minimal essential medium (DMEM, Invitrogen, Cergy Pontoise, France) containing 2 mM glutamine, 100 IU/mL penicillin, […] streptomycin, and 10% heat-inactivated fetal calf serum at 37°C in 96-well plates. Twenty-four hours before testing, cells were co-transfected in serum free OptiMEM, using Lipofectamine 2000 (Invitrogen, Cergy Pontoise, France) with the plasmids for human GnRH receptor, luc2P/SRE/Hygro and pMIR-REPORT™ beta-galactosidase vector (Applied Biosystems, Foster City, CA). […] After 5 h-incubation cells were harvested and assayed for luciferase activities as previously described, using a luminometer (Victor, Perkin Elmer, Waltham, MA). To standardize for transfection efficiency, the relative light units were normalized by the galactosidase activity at optical density. EC-50 and Emax values were calculated using Graphpad Prism (GraphPad Software Inc).

ERK1/2 (LbetaT2 cells) = test: ERK1/2 phosphorylation Western blot in LbetaT2 cells; type: cell-based, murine
Method: Figure 4 ERK1/2 phosphorylation by Western blot. (A) LbetaT2 cells were starved overnight in serum-free DMEM and then treated by 10 nM WT, 10 nM R31C, 10 nM WT +10 nM R31C peptides or vehicle for 0, 5, 10 and 30 minutes. Representative of four experiments. […] Lysates were analyzed by Western Blotting using phospho-ERK1/2 antibodies (Cell Signaling®, open arrow) and mouse monoclonal anti alpha-tubulin (Sigma Aldrich®, St. Louis, MO, close arrow). Similar results on ERK intensity and kinetics were obtained using transiently transfected HEK293T cells.
LbetaT2 cells were starved 18 h in serum-free DMEM before treatments, then exposed to 10 nM of WT, 10 nM of R31C, the combination of 10 nM of each peptide or vehicle. Cells were harvested at 0, 5, 10, 15 and 30 minutes after treatment. Western blotting analyses were performed as previously described.

LbetaT2 cells = test: Intracellular calcium mobilization (Fura2) in LbetaT2 cells; type: cell-based, murine; conditions: for calcium mobilisation: 10 nM, LbetaT2 cells
Method: Figure 5 Effect of treatments on intracellular calcium mobilization. Cells were loaded with Fura 2-AM. At the time of the experiment 100 µM EGTA was added 30 sec before addition of 300 µM of CaCl2 (Ca^2+) to the medium as indicated, and cells were then stimulated with 10 nM of wild type (WT), mutant (R31C) or equimolar combination (10 nM WT +10 nM R31C) or vehicle for 3 min. In the upper panel, representative curves of single cell recording. Each experiment mean was analysed using One-way ANOVA followed by Tukey's Multiple comparison test. In the lower panels, histograms show the means ± SEM (n = 4) of the response to ligands as calcium peak and as area under the curve (AUC). […] Representative of at least three independent experiments, *p<0.05.
LbetaT2 cells were kept in serum free medium overnight and then loaded with 2 µM Fura2-AM for 45 min at 37°C. The experiment was conducted in HEPES buffer (in mM; 116 NaCl, 5.6 KCl, 1.2 MgCl2, 5 NaHCO3, 1 NaH2PO4, 20 HEPES ph 7.4) in presence of extracellular Ca^2+ (EGTA 100 µM + CaCl2 300 µM). Single images of fluorescent emission at 510 nm under excitation at 340 and 380 nm were taken every 5 Sec. Changes in [Ca^2+]i in response to GnRHs were monitored using the Fura2 340/380 fluorescence ratio. Basal ratio was arbitrarily considered as 1. Ca^2+ responses over basal level were given either as maximal rise of [Ca^2+]i or as area under the curve (for 2 min after agonist addition).

[1] = Peptide stability in solution, LC-MS/MS
Method: LC-MS/MS was performed with Quattro-LCZ triple quadrupole mass spectrometer equipped with the orthogonal electrospray source (Micromass, Manchester, UK) to analyze peptides stability in solution. Peptides solutions (water and cell culture medium) were incubated 24-h at room temperature for these stability studies.
Peptides were measured in aqueous solution at pH 7 and starved overnight at 37°C.

[2] = aqueous solution at pH 7, overnight at 37°C, mass spectrometry-coupled electrospray (Fig. S1)
[3] = R31C 10^−10 M to 10^−6 M in combination with WT GnRH at 10^−9 M
[4] = 10 nM R31C, 3 min, EGTA 100 µM + CaCl2 300 µM, n = 4, p<0.05

EC50 (human GnRH receptor; HEK293T, 5 h, p<0.0001 WT vs R31C, read-out: EC-50, SRE-luciferase): 4 nM
formation of smaller fragments [1, 2]: absent
Structure (SMILES): CC(C)C[C@H](NC(=O)CNC(=O)[C@H](Cc1ccc(O)cc1)NC(=O)[C@H](CO)NC(=O)[C@H](Cc1c[nH]c2ccccc12)NC(=O)[C@H](Cc1c[nH]cn1)NC(=O)[C@@H]1CCC(=O)N1)C(=O)N[C@@H](CCCNC(=N)N)C(=O)N1CCC[C@H]1C(=O)NCC(N)=O [WT GnRH, reference compound]
covalent binding to receptor / subsequent binding of radiolabeled GnRH analog after pre-incubation and washing (GnRH-R): can be fully removed from the receptor
receptors occupied in pre-incubation (GnRH-R; WT GnRH at 10^−8 M): 50%
time of maximal ERK1/2 phosphorylation (ERK1/2 (LbetaT2 cells); 10 nM, LbetaT2 cells, 0-30 minutes, four experiments): 5 min
calcium mobilisation (LbetaT2 cells): rapid and transient calcium mobilisation

dimerization ([1]; 24 h, room temperature, water and culture medium, LC-MS/MS): No dimerization
formation of R31C dimers [1, 2]: absent
formation of smaller fragments [1, 2]: negligible
stability over 24-hours ([1]; culture medium, room temperature, 24 h, LC-MS/MS): stable
stability over 24-hours ([1]; water, room temperature, 24 h, LC-MS/MS): stable
Structure (SMILES): CC(C)C[C@H](NC(=O)CNC(=O)[C@H](Cc1ccc(O)cc1)NC(=O)[C@H](CO)NC(=O)[C@H](Cc1c[nH]c2ccccc12)NC(=O)[C@H](Cc1c[nH]cn1)NC(=O)[C@@H]1CCC(=O)N1)C(=O)N[C@@H](CS)C(=O)N1CCC[C@H]1C(=O)NCC(N)=O [R31C GnRH]
receptors occupied in pre-incubation (GnRH-R; R31C GnRH (10^−5 M in method and Fig. 2B), determined from the competition binding study): 50%
covalent binding to receptor / subsequent binding of radiolabeled GnRH analog after pre-incubation and washing (GnRH-R): does not form covalent disulfide bonds with the receptor
maximal stimulation / agonism, SRE-luciferase (human GnRH receptor; HEK293T, 5 h, R31C compared with WT): full agonist; also recorded: able to elicit the same maximal stimulation
EC50 (human GnRH receptor; HEK293T, 5 h, n = 8 dose-response experiments, Arcsin "P" root transformation, spread not defined, p<0.0001, read-out: EC-50, SRE-luciferase (Fig. 3B)): 313 ± 130 nM
impact of added R31C GnRH on SRE-luciferase with WT GnRH (human GnRH receptor; [3]): failed to have any impact
SRE-luciferase activity / potency (human GnRH receptor; R31C GnRH versus WT): very low activity
reduction of R31C agonist versus WT, SRE-luciferase (human GnRH receptor; R31C versus WT, dose-response curves): ~100 fold
ERK1/2 phosphorylation versus WT GnRH (ERK1/2 (LbetaT2 cells); 10 nM, LbetaT2 cells, four experiments): very low activity
ERK1/2 phosphorylation versus WT GnRH (ERK1/2 (LbetaT2 cells); 10 nM, LbetaT2 cells, four experiments, listed as R31C peptide): weaker responses
effect of increasing R31C dose on ERK1/2 phosphorylation by WT GnRH (ERK1/2 (LbetaT2 cells); R31C from 10 nM to 300 nM with 10 nM WT GnRH, 5 minutes exposure): did not reduce ERK1/2 phosphorylation
calcium area under the curve (AUC) versus WT (LbetaT2 cells; [4]): significantly reduced compared to WT; also recorded: significantly lower than WT
calcium peak versus WT (LbetaT2 cells; [4]): significantly reduced compared to WT; also recorded: significantly lower than WT
calcium mobilisation (LbetaT2 cells): very low activity
calcium mobilisation (LbetaT2 cells; listed as R31C peptide): weaker responses
impact of added R31C GnRH on Ca2+ signaling with WT GnRH (LbetaT2 cells; [3]): failed to have any impact
